From the NIST ThermoML archive (doi:10.1016/j.jct.2012.05.030)
Numbers after ± are expanded uncertainties.

Experiments:
[1] = refractive index (other wavelength) (dimensionless); conditions: 100 kPa, Liquid, Wavelength=632.8 nm, Standard Abbe refractometry
[2] = refractive index (other wavelength) (dimensionless); xn = mol fraction of the nth substance listed; conditions: 100 kPa, Liquid, Wavelength=632.8 nm, Standard Abbe refractometry

N#Cc1ccccc1 [benzonitrile]
[1]
Conditions	refractive index
293.37 K	1.5252 ± 0.0008
293.99 K	1.5249 ± 0.0008
294.53 K	1.5247 ± 0.0008
295.09 K	1.5243 ± 0.0008
295.66 K	1.5241 ± 0.0008
296.11 K	1.5238 ± 0.0008
296.8 K	1.5236 ± 0.0008
297.16 K	1.5233 ± 0.0008
297.91 K	1.523 ± 0.0008
298.2 K	1.5228 ± 0.0008
298.8 K	1.5225 ± 0.0008
298.83 K	1.5226 ± 0.0008
299.26 K	1.5223 ± 0.0008
300.06 K	1.5219 ± 0.0008
300.12 K	1.5219 ± 0.0008
300.31 K	1.5218 ± 0.0008
301.13 K	1.5214 ± 0.0008
301.23 K	1.5214 ± 0.0008
301.35 K	1.5213 ± 0.0008
302.26 K	1.5209 ± 0.0008
302.31 K	1.5209 ± 0.0008
302.42 K	1.5208 ± 0.0008
302.65 K	1.5207 ± 0.0008
303.41 K	1.5203 ± 0.0008
304.49 K	1.5198 ± 0.0008
305.64 K	1.5192 ± 0.0008
306.89 K	1.5186 ± 0.0008
307.55 K	1.5183 ± 0.0008
307.88 K	1.5181 ± 0.0008

N#Cc1ccccc1 [benzonitrile] + CCCCCCCCCCCCCCC
[2], x1 = 1
Conditions	refractive index
293.37 K	1.5252 ± 0.0008
293.99 K	1.5249 ± 0.0008
294.53 K	1.5247 ± 0.0008
295.09 K	1.5243 ± 0.0008
295.66 K	1.5241 ± 0.0008
296.11 K	1.5238 ± 0.0008
296.8 K	1.5236 ± 0.0008
297.16 K	1.5233 ± 0.0008
297.91 K	1.523 ± 0.0008
298.2 K	1.5228 ± 0.0008
298.8 K	1.5225 ± 0.0008
298.83 K	1.5226 ± 0.0008
299.26 K	1.5223 ± 0.0008
300.06 K	1.5219 ± 0.0008
300.12 K	1.5219 ± 0.0008
300.31 K	1.5218 ± 0.0008
301.13 K	1.5214 ± 0.0008
301.23 K	1.5214 ± 0.0008
301.35 K	1.5213 ± 0.0008
302.26 K	1.5209 ± 0.0008
302.31 K	1.5209 ± 0.0008
302.42 K	1.5208 ± 0.0008
302.65 K	1.5207 ± 0.0008
303.41 K	1.5203 ± 0.0008
304.49 K	1.5198 ± 0.0008
305.64 K	1.5192 ± 0.0008
306.89 K	1.5186 ± 0.0008
307.88 K	1.5181 ± 0.0008

N#Cc1ccccc1 [benzonitrile] + CCCCCCCCCCCCCCCCC
[2], x1 = 1
Conditions	refractive index
293.37 K	1.5252 ± 0.0008
293.99 K	1.5249 ± 0.0008
294.53 K	1.5247 ± 0.0008
295.09 K	1.5243 ± 0.0008
295.66 K	1.5241 ± 0.0008
296.11 K	1.5238 ± 0.0008
296.8 K	1.5236 ± 0.0008
297.16 K	1.5233 ± 0.0008
297.91 K	1.523 ± 0.0008
298.2 K	1.5228 ± 0.0008
298.8 K	1.5225 ± 0.0008
298.83 K	1.5226 ± 0.0008
299.26 K	1.5223 ± 0.0008
300.06 K	1.5219 ± 0.0008
300.12 K	1.5219 ± 0.0008
300.31 K	1.5218 ± 0.0008
301.13 K	1.5214 ± 0.0008
301.23 K	1.5214 ± 0.0008
301.35 K	1.5213 ± 0.0008
302.26 K	1.5209 ± 0.0008
302.31 K	1.5209 ± 0.0008
302.42 K	1.5208 ± 0.0008
303.41 K	1.5203 ± 0.0008
304.49 K	1.5198 ± 0.0008
305.64 K	1.5192 ± 0.0008
306.89 K	1.5186 ± 0.0008
307.55 K	1.5183 ± 0.0008
307.88 K	1.5181 ± 0.0008

CCCCCCCCCCCCCCCCC [heptadecane]
[1]
Conditions	refractive index
298.76 K	1.4331 ± 0.0008
299.97 K	1.4326 ± 0.0008
301.18 K	1.4321 ± 0.0008
302.15 K	1.4317 ± 0.0008
303.27 K	1.4313 ± 0.0008
304.24 K	1.4309 ± 0.0008
305.29 K	1.4304 ± 0.0008
306.32 K	1.43 ± 0.0008
307.42 K	1.4296 ± 0.0008
307.55 K	1.4296 ± 0.0008

CCCCCCCCCCCCCCCCC [heptadecane] + N#Cc1ccccc1
[2]
Conditions	refractive index
298.76 K, x2 = 0	1.4331 ± 0.0008
299.97 K, x2 = 0	1.4326 ± 0.0008
301.18 K, x2 = 0	1.4321 ± 0.0008
302.15 K, x2 = 0	1.4317 ± 0.0008
303.27 K, x2 = 0	1.4313 ± 0.0008
304.24 K, x2 = 0	1.4309 ± 0.0008
305.29 K, x2 = 0	1.4304 ± 0.0008
306.32 K, x2 = 0	1.43 ± 0.0008
307.42 K, x2 = 0	1.4296 ± 0.0008
307.55 K, x2 = 0	1.4296 ± 0.0008
307.55 K, x2 = 0.1039	1.4325 ± 0.0008
307.55 K, x2 = 0.2138	1.4362 ± 0.0008
307.55 K, x2 = 0.3266	1.4411 ± 0.0008
307.55 K, x2 = 0.4187	1.4458 ± 0.0008
307.55 K, x2 = 0.5127	1.4515 ± 0.0008
307.55 K, x2 = 0.5975	1.4578 ± 0.0008
307.55 K, x2 = 0.7127	1.4688 ± 0.0008
307.55 K, x2 = 0.8046	1.4802 ± 0.0008
307.55 K, x2 = 0.9266	1.501 ± 0.0008

CCCCCCCCCCCCCCC [pentadecane]
[1]
Conditions	refractive index
293.37 K	1.4305 ± 0.0008
294.36 K	1.4301 ± 0.0008
295.64 K	1.4296 ± 0.0008
296.92 K	1.429 ± 0.0008
297.91 K	1.4286 ± 0.0008
299.12 K	1.4281 ± 0.0008
300.26 K	1.4276 ± 0.0008
301.51 K	1.4271 ± 0.0008
302.46 K	1.4267 ± 0.0008
302.65 K	1.4266 ± 0.0008

CCCCCCCCCCCCCCC [pentadecane] + N#Cc1ccccc1
[2]
Conditions	refractive index
293.37 K, x2 = 0	1.4305 ± 0.0008
294.36 K, x2 = 0	1.4301 ± 0.0008
295.64 K, x2 = 0	1.4296 ± 0.0008
296.92 K, x2 = 0	1.429 ± 0.0008
297.91 K, x2 = 0	1.4286 ± 0.0008
299.12 K, x2 = 0	1.4281 ± 0.0008
300.26 K, x2 = 0	1.4276 ± 0.0008
301.51 K, x2 = 0	1.4271 ± 0.0008
302.46 K, x2 = 0	1.4267 ± 0.0008
302.65 K, x2 = 0	1.4266 ± 0.0008
302.65 K, x2 = 0.1097	1.4304 ± 0.0008
302.65 K, x2 = 0.22	1.435 ± 0.0008
302.65 K, x2 = 0.3283	1.4404 ± 0.0008
302.65 K, x2 = 0.4141	1.4454 ± 0.0008
302.65 K, x2 = 0.4959	1.451 ± 0.0008
302.65 K, x2 = 0.5849	1.4582 ± 0.0008
302.65 K, x2 = 0.7005	1.4698 ± 0.0008
302.65 K, x2 = 0.8052	1.4832 ± 0.0008
302.65 K, x2 = 0.8983	1.4986 ± 0.0008
